Data on one substance can be found in patent publication US20220249596A1, “PIC1 PEPTIDE COMPOSITIONS AND METHODS OF USE THEREOF FOR TREATMENT OF HYPOXIC ISCHEMIC ENCEPHALOPATHY” (REALTA HOLDINGS, LLC, priority 2019, published 2022).

Common to all, as to format: in vivo, rat
One assay relates to C3aR. As to the kind of experiment: Whole brain C3aR expression, Western blotting and immunofluorescence. The settings on record: PIC1 group versus NT animals, P<0.05. Here is the method:
(§1) After blocking for one hour at room temperature, tissues were incubated with 1:300 goat anti-Iba1 (Abcam), 1:250 goat anti-GFAP (Abcam), 1:500 chicken anti-NeuN (Millipore, Billerica, Mass.), or 1:100 mouse anti-NeuN (Millipore) in host appropriate blocking serum overnight at 4° C. Primary antibodies were probed with 1:500 donkey anti-goat (Abcam), goat anti-chicken (Abcam), or goat anti-mouse (Abcam) AF 488 or 568 in appropriate blocking serum for one hour at room temperature. Tissues were blocked a second time with NGS for one hour at room temperature. Samples were then probed with 1:300 mouse anti-C1q (Abcam), 1:300 rabbit anti-C9, 1:50 rabbit anti-MPO (Abcam), 1:200 rabbit anti-TMEM (Novus Bio, Centennial, Colo.), 1:100 rabbit anti-C3aR (Bioss), 1:100 Mouse anti-C5aR (Hycult), or 1:200 chicken anti-C3/C3a (Abcam) in NGS overnight at 4° C. and then with 1:500 goat anti-mouse, rabbit, or chicken (Abcam) AF 488 or 568 in NGS for one hour at room temperature.
Without wishing to be bound by theory, C3a is generated at the convergence of all known complement activation pathways (i.e., the classical, alternate and lectin pathways). To investigate further, C3aR levels in the brain were measured by Western blotting and immunofluorescence (FIG. 5). Western blotting was performed as follows. […]

Assay [1] in a line: Barnes maze, spatial learning and memory. How it is done: Spatial learning and memory were evaluated by measuring navigational ability of rats in a Barnes maze 8 weeks after initial injury. The Barnes maze tests memory across test sessions or trials and is more closely related to long-term memory. The test was performed using a Plexiglas maze 122 cm in diameter, with 20 equidistant holes (10.5 cm diameter) spaced every […], and centered 20 cm from the outer perimeter. An escape box (8 cm in depth) was placed under one of the holes. The position of the escape box was varied randomly from rat to rat, but kept constant for a given rat throughout testing. A floodlight was placed over the maze to serve as an aversive stimulus.
Prior to testing, the rats underwent habituation sessions once a day for 5 consecutive days. In each session, the rats were placed in a holding box in the middle of the maze and allowed to get acclimated for 60 seconds. The holding box was then lifted up from the rats so that the rats were allowed to explore. The test was over when either the rat found the burrowing hole and burrowed for 10 seconds or the 5-minute time limit was reached. […] On the 14th day after the habituation sessions, the rats were tested to evaluate memory retention. Latency to investigate any hole, escape latency, and number of errors during the test trials were analyzed by two-way ANOVA, followed by Bonferroni's post hoc comparison matrix. The same measurements recorded during the memory retention test were analyzed by Student's t-test. Significance was considered at p<0.05.

Assay [2] in a line: Novel object recognition test. The conditions noted are these: 8 weeks after HIE, versus HT and NT animals, P<0.05. Here is the method:
The novel object recognition test was performed at 8 weeks after HIE to test cognitive function by evaluating the differences in the exploration time of novel and familiar objects. The novel object recognition task tests for short-term, intermediate and long-term memory without the need for external motivation, reward, or punishment. Results on the test are influenced by both hippocampal and cortical injury. The test is based on the concept that when animals are exposed to a familiar and a novel object, they spend more time exploring the novel object. It is thought that the recognition of novelty requires more cognitive skills from the subject.
Rats were trained for two days prior to novel object testing. During the training sessions, the rat was allowed to explore the testing chamber, a polycarbonate box (40×40 cm) with two identical objects for three minutes. On testing day, one of the familiar objects was replaced with a novel object, made with the same material but a different shape, and allowed to explore for three minutes. Video recordings of the interactions were reviewed by blinded investigators. Object exploration was defined as the rat directing its nose toward the object at a distance of less than 2 cm. The DINOR was calculated as ((time with novel object−time with familiar object))/(total time spent with objects).

Assay [3] deals with neurons, microglia and astrocytes of ipsilateral cortex and hippocampus. As to the kind of experiment: Immunofluorescence of neurons (NeuN), microglia (Iba1), astrocytes (GFAP) after HIE. The settings on record: P<0.05. Here is the method:
TUNEL/C1q staining was performed as follows. Five (5) μm paraffin-embedded coronal brain sections on slides were incubated (1 hour; 60° C.), deparaffinized with xylene, and rehydrated with ethanol (100%, 95%, 70%; RT). Endogenous peroxidase activity was blocked (0.3% H2O2/MeOH; 10 minutes; RT), and heat induced antigen retrieval was performed (when indicated) using 10 mM sodium citrate, pH 6.0. 10% normal serum (from the same species as the host of the secondary antibody) was used to block and to dilute antibodies. Samples were washed twice for 10 min each, in PBST between each step.
as §1
Fluorescent images of the cortex were taken at 20× magnification using a digital camera (DP70, Olympus Center, Valley Forge, Pa.), mounted on a BX50 Olympus microscope. Adobe Photoshop CS5 was used to merge immunofluorescence images, and Image J (National Institutes of Health) was used for analysis.

No end group written: not given here.

Consider “IALILEPICCQERAA-dPEG24 (cysteine pairing not given here) [PIC1]”, for which the “whole brain C3aR expression” value in the assay with C3aR is listed as “significantly higher”. Further, the “Barnes maze: latency in finding the escape hole” value in assay [1] (8 weeks after injury, versus NT and HT animals) is reported as “significantly shorter”. Further, the “Barnes maze: seeking strategy” value in assay [1] (direct versus random or serial strategy) is “more likely to use a direct strategy”. In assay [1] (versus HT-treated animals), the “Barnes maze: errors in finding the escape hole” value is on record as “significantly fewer”. Also, in assay [1] (versus NT animals, P=0.06, not statistically significant), the “Barnes maze: errors in finding the escape hole” value is listed as “trended towards fewer errors”. In assay [2], the “novel object recognition: proportion of time exploring the novel object” value is “significantly higher proportion of time”. Moreover, the neuronal density result in assay [3] (48 hours, versus NT and HT) is recorded as “higher neuronal density”. In assay [3] (versus NT), the astrogliosis result is on record as “reduced astrogliosis”; the “microglial numbers and size” value is “reduced microglial numbers and size”.
